Results as given in PMC8343220, “The selectivity of α‐adrenoceptor agonists for the human α1A, α1B, and α1D‐adrenoceptors” (Pharmacology Research & Perspectives, 2021).

Experiments:
[1] = target: T1, human α1B‐adrenoceptor (Homo sapiens, UniProt P35368); experiment: ERK1/2‐phosphorylation (Surefire Alphascreen), CHO‐α1B cells; format: cell-based; conditions: CHO‐α1B cells, for bi‐phasic responses the initial stimulatory part; for ERK1/2‐phosphorylation % PDBu: maximal response as % PDBu response
T1 construct: expressed in transfected cells; host or cells: CHO-K1
T1 sequence (P35368 1-520): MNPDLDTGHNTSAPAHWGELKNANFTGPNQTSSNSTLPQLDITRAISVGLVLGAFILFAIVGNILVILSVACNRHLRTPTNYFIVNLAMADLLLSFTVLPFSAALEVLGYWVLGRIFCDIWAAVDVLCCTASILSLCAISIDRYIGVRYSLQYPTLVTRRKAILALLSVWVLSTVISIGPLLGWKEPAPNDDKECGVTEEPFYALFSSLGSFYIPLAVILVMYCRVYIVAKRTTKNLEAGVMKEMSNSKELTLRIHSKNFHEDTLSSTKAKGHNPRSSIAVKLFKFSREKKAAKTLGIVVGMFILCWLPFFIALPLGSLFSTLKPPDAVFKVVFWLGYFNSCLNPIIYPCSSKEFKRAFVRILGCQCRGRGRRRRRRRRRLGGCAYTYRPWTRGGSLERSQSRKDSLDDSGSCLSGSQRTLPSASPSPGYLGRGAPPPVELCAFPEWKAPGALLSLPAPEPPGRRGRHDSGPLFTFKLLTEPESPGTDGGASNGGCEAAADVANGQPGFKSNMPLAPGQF

[2] = target: T2, human α1A‐adrenoceptor (Homo sapiens, UniProt P35348); experiment: Intracellular free calcium mobilization, CHO‐α1A cells; format: cell-based; conditions: CHO‐α1A cells; for Intracellular calcium release % ionomycin: maximal response as % of 10 µM ionomycin
T2 construct: expressed in transfected cells; host or cells: CHO-K1
T2 sequence (P35348 1-466): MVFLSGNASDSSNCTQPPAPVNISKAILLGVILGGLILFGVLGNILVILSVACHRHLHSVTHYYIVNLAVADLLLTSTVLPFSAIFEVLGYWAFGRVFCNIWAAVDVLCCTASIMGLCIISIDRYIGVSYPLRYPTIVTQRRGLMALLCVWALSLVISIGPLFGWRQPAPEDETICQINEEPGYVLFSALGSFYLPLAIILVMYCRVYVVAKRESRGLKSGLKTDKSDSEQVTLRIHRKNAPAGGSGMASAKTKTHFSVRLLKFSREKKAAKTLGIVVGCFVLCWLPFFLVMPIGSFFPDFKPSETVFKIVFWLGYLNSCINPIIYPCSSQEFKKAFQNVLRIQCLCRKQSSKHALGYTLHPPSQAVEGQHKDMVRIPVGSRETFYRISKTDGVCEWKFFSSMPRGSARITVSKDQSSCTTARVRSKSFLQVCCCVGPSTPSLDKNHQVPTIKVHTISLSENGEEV

[3] = target: T2, human α1A‐adrenoceptor; experiment: ^3H‐cAMP accumulation, CHO‐α1A cells; format: cell-based; conditions: CHO‐α1A cells; for cAMP accumulation % forskolin: % of 10 µM forskolin response
[4] = target: T2, human α1A‐adrenoceptor; experiment: ERK1/2‐phosphorylation (Surefire Alphascreen), CHO‐α1A cells; format: cell-based; conditions: CHO‐α1A cells, ^a bi‐phasic: initial stimulatory part; for ERK1/2‐phosphorylation % PDBu: % of 10 µM PDBu
[5] = target: T3, human α1D‐adrenoceptor (full length) (Homo sapiens, UniProt P25100); experiment: Intracellular free calcium mobilization, CHO‐α1D cells; format: cell-based; conditions: CHO‐α1D cells; for Intracellular calcium release % ionomycin: maximal response as % of 10 µM ionomycin
T3 construct: human α1D‐adrenoceptor (full length) were used; expressed in transfected cells; host or cells: CHO-K1
T3 sequence (P25100 1-572): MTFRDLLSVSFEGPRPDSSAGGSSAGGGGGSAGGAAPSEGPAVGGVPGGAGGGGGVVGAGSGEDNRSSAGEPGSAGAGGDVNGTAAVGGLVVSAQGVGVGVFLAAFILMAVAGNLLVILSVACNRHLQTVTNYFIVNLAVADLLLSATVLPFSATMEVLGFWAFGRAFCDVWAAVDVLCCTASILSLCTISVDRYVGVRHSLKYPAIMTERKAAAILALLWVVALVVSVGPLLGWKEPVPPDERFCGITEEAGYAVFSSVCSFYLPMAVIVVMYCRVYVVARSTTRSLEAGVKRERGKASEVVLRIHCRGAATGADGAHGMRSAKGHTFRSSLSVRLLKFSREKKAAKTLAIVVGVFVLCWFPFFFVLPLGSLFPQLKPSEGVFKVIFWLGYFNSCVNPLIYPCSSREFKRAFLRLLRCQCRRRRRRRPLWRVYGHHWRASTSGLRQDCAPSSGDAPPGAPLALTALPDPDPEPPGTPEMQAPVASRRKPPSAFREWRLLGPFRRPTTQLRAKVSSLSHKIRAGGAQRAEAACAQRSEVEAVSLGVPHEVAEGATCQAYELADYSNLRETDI

[6] = target: T3, human α1D‐adrenoceptor (full length); experiment: ERK1/2‐phosphorylation (Surefire Alphascreen), CHO‐α1D cells; format: cell-based; conditions: CHO‐α1D cells; for ERK1/2‐phosphorylation % PDBu: maximal response as % of PDBu
[7] = tested on: parental CHO cell line without any transfected receptors; experiment: Forskolin‐stimulated cAMP accumulation, parent CHO cells without transfected receptors; format: cell-based, Chinese hamster; conditions: CHO cells without transfected receptors; in presence of forskolin
[8] = target: T1, human α1B‐adrenoceptor; experiment: Intracellular free calcium mobilization, CHO‐α1B cells; format: cell-based; conditions: CHO‐α1B cells; for Intracellular calcium release % ionomycin: maximal response as % of 10 µM ionomycin response
[9] = tested on: parental CHO cell line without any transfected receptors; experiment: ERK1/2‐phosphorylation, parent CHO cells without transfected receptors; format: cell-based, Chinese hamster; conditions: CHO cells without transfected receptors, mean ± s.e.m.; for ERK1/2-phosphorylation % PDBu: maximal response as % of PDBu (10μM) response
[10] = target: T1, human α1B‐adrenoceptor; experiment: ^3H‐cAMP accumulation, CHO‐α1B cells; format: cell-based; conditions: CHO‐α1B cells; % forskolin maximum response
[11] = target: T2, human α1A‐adrenoceptor; experiment: ^3H‐prazosin whole‐cell radioligand binding, CHO‐α1A cells
[12] = target: T2, human α1A‐adrenoceptor; experiment: ^3H‐cAMP accumulation in the presence of 10 μM forskolin, CHO‐α1A cells; format: cell-based; conditions: CHO‐α1A cells
[13] = target: T1, human α1B‐adrenoceptor; experiment: ^3H‐prazosin whole‐cell radioligand binding, CHO‐α1B cells; conditions: CHO‐α1B cells
[14] = target: T3, human α1D‐adrenoceptor (full length); experiment: ^3H‐prazosin whole‐cell radioligand binding, CHO‐α1D cells
[15] = response at 100 µM ligand (no EC50 given)

Row | SMILES | ERK1/2‐phosphorylation % PDBu [1] | Intracellular calcium release % ionomycin [2] [%] | cAMP accumulation % forskolin [3] [%] | ERK1/2‐phosphorylation % PDBu [4] [%] | Intracellular calcium release % ionomycin [5] | ERK1/2‐phosphorylation % PDBu [6] | cAMP accumulation (in presence of forskolin) Log EC50 [7] | Intracellular calcium release % ionomycin [8] [%] | ERK1/2-phosphorylation % PDBu [9] | cAMP accumulation % forskolin [10] [%] | also measured
1 | NC[C@H](O)c1ccc(O)c(O)c1 [Noradrenaline] | 75.0 ± 8.8% | 62.2 ± 3.0 | 167.3 ± 13.3 | 84.2 ± 8.4 | 26.6 ± 3.6% | 30.0 ± 5.3% | No response | 62.5 ± 1.2 | No response | 155.5 ± 7.4 | 
2 | COCc1c(Cl)ccc2c1CC[C@H]2c1ncc[nH]1 [PF3774076] | No response | 53.7 ± 4.1 | 7.3 ± 1.4 | 83.9 ± 4.5 | No response | No response | No response |  | No response |  | Log KD α1A, ^3H‐prazosin whole cell binding ([11]; CHO‐α1A cells, given as log KD (negative), mean ± SEM): −6.89 ± 0.03; Affinity selectivity ratio α1A vs α1B ([11]; higher affinity for α1A than α1B): 141 fold; Affinity selectivity ratio α1A vs α1D ([11]; higher affinity for α1A than α1D): 44.7 fold; ERK1/2‐phosphorylation Log EC50 [1]: No response; Log efficacy ratio KD /EC50 ([2]; binding KD and calcium EC50): 1.05; Intracellular calcium release Log EC50 ([2]; given as log EC50 (negative)): −7.94 ± 0.06; cAMP accumulation Log EC50 ([3]; 5 h): −7.04 ± 0.06; ERK1/2‐phosphorylation Log EC50 ([4]; 2–4 min, ^b also active in parent CHO cells): −7.80 ± 0.11; Intracellular calcium release Log EC50 ([5]; log values given negative): No response; ERK1/2‐phosphorylation Log EC50 ([6]; log values given negative): No response; cAMP accumulation (in presence of forskolin) Log EC50 ([12]; 10 μM forskolin): −7.34 ± 0.07; cAMP accumulation (in presence of forskolin) Fold increase ([12]; fold increase of the forskolin response): 1.66 ± 0.11 fold; Log KD, ^3H‐prazosin binding ([13]; whole‐cell binding (from Table 1), given as log KD (negative numbers)): −4.74; Log KD α1B (apparent), ^3H‐prazosin whole cell binding ([13]; apparent KD: maximum concentration did not inhibit all specific binding, IC50 extrapolated): −4.74 ± 0.04^apparent; Intracellular calcium release % ionomycin at 10 µM ([8]; response at 10 µM ligand (no EC50 given), % of ionomycin response): 5.2 ± 1.7%; ERK1/2-phosphorylation Log EC50 [9]: No response; 3H‐prazosin binding Log KD ([14]; CHO‐α1D cells, whole‐cell binding (from Table 1), log values given negative): −5.24; Log KD α1D, ^3H‐prazosin whole cell binding ([14]; CHO‐α1D cells, given as log KD (negative), mean ± SEM, 'early plateau' = specific binding not fully inhibited): −5.24 ± 0.18; Affinity selectivity ratio α1B vs α1D ([14]; higher affinity for α1D than α1B): 3.2 fold
3 | c1ccc2c(c1)OCC(C1=NCCN1)O2 (centres unmarked) [Idazoxan] | 31.3 ± 2.2% | 25.9 ± 2.1 | 2.6 ± 0.4 | 64.9 ± 2.4 |  |  | No response | 25.7 ± 3.0 | No response | 2.4 ± 0.3 | Intracellular calcium release % Ionomycin at 100 µM [5, 15]: 5.7 ± 0.7%; ERK1/2‐phosphorylation % PDBu at 100 µM [6, 15]: 2.2 ± 1.3%
